Experimental data from PubChem BioAssay (NCI).
“And” between values parts separate entries of the source, which are not always exact repeats. Equal values may be shown once.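 Briefly, cells in 96-well plates were exposed to five compound concentrations for 48 h, and endpoints were estimated by linear interpolation. The concentration for 50% growth inhibition is given as GI50. Definition used: TGI = concentration required for complete inhibition of growth.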

What follows are compounds tested on MDA-MB-468 breast (assay: NCI-60 cell line screen, 48 h).

| SMILES | GI50 | TGI |
| --- | --- | --- |
| CC1(O)CC(c2nc(-c3ccc4ccc(-c5ccccc5)nc4c3)c3c(N)nccn23)C1 (configuration not stated) | 3.02 µM and 2.9 µM | 12.8 µM and > 10 µM |
| COc1ccc(NC(=O)COCCOCCNC[C@@H]2C(=O)O[C@H]3[C@H]2CC/C(COC(=O)OC/C2=C/CC[C@@]4(C)O[C@H]4[C@H]4OC(=O)[C@@H](CN(C)C)[C@@H]4CC2)=C\CC[C@@]2(C)O[C@@H]32)c(O)c1C(N)=O | 3.04 µM | 10.8 µM |
| COc1ccc(/C=C(\C#N)n2nnc3ccccc32)cc1 | 0.272 µM | 4.1 µM |
| CCN1Cc2c(ccc(F)c2C#N)O[C@@H](C)CNC(=O)c2c(N)nn3ccc1nc23 | 12.5 µM | 34.3 µM |
| CCC[CH2][Sn]([CH2]CCC)([CH2]CCC)[O]C(=O)c1ccc(Cl)cc1Cl | 0.133 µM | 0.274 µM |
| Nc1nc(N)c2c(n1)NC(c1ccc(F)cc1)C1CCc3ccccc3C1=N2 (configuration not stated) | 1.43 µM | 6.7 µM |
| C=C(C)[C@@H]1CC[C@]2(C)[C@H](CC=C3[C@@H]4[C@@H](C)[C@H](C)CC[C@]4(C(N)=O)CC[C@]32C)[C@@]1(C)CCC#N | 3.15 µM | 12.8 µM |
| CCCCCCCCCCC(C(O)c1ccccc1)N1CCCCC1 (configuration not stated) | 1.58 µM | 3.09 µM |
| COc1cc(Cl)cc(-c2nn(-c3cccc(NC(=O)Nc4cc(C(F)(F)F)cc(C(F)(F)F)c4)c3)cc2-c2ccncc2)c1 | 0.349 µM | 3.15 µM |
| O=C(c1ccccc1)C(Br)C(Br)c1cccc([N+](=O)[O-])c1 (configuration not stated) | 1.47 µM | 3.08 µM |
| CC(=C(c1ccc(OCCN2CCCC2)cc1)c1ccc(OCCN2CCCC2)cc1)c1ccc(Cl)cc1 | 2.37 µM | 5.01 µM |
| COc1cc(NC(=O)CSc2nc3ccc(C)cc3c(=O)n2Cc2ccccc2)cc(OC)c1OC | 4.11 µM | 68.1 µM |
| COc1cc(/C=N/NC(=O)c2cnn3c2NC(c2ccccc2)C3)ccc1Oc1ccccc1 (configuration not stated) | 0.648 µM | 5.72 µM |
| Nc1nc2n[nH]nc2c(=O)[nH]1 | 0.0817 µM | 0.792 µM |
| C=C1C(=O)O[C@H]2[C@H]1CCC(/C=N/c1ncc(Br)cc1N)=C\CC[C@@]1(C)O[C@@H]21 | 1.2 µM | 3.91 µM |
| CN(C)CC1C(=O)O[C@H]2[C@H]1CC/C(COC(=O)c1cc3ccccc3[nH]1)=C\CC[C@@]1(C)O[C@@H]21 (some centres not stated) | 1.44 µM | 3.14 µM |
| Oc1ccccc1CNCC12CC3CC(CC(C3)C1)C2 | 12.8 µM | 31.7 µM |
| CC(=O)c1cccc(Nc2nc3ccc(Cl)cc3c3[nH]c4ccccc4c23)c1 | 2.84 µM | 96.8 µM |

| SMILES | GI50 | TGI |
| --- | --- | --- |
| Cc1cc(NCc2cc(Nc3ccnc4cc(Cl)ccc34)ccc2F)nc(N2CCN(C)CC2)n1 | 1.7 µM | 3.52 µM |
| COC(=O)CCC1CCC(c2cc(F)ccc2F)(S(=O)(=O)c2ccc(Cl)cc2)CC1 (configuration not stated) | 16.3 µM | > 100 µM |
| N#CC1=C(N)Oc2c(sc3c(Br)cccc23)C1c1ccc(Br)cc1 (configuration not stated) | 0.763 µM | 11.4 µM |
| COc1cc2c(cc1OCCCCCOc1ccc(-n3c(C)nc4ccccc4c3=O)cc1)N=C[C@@H]1CCCN1C2=O | 0.168 µM | 0.462 µM |
| N#Cc1c(-c2cccs2)cc(-c2cnccn2)nc1SCC(=O)N/N=C/c1ccccc1 | 3.9 µM | 13.9 µM |
| COC(=O)C1CCCN1C(=O)[C@@H]1CCCN1C(=O)[C@H](Cc1c[nH]c2ccccc12)NC(=S)Nc1cc(C(F)(F)F)cc(C(F)(F)F)c1 (some centres not stated) | 1.78 µM | 4.64 µM |
| COc1ccc(/C(=N\O)c2cc(C)c(OC)c(C)c2)cc1O | 0.0146 µM | > 100 µM |
| COc1ccccc1N1CCN(CCc2c[nH]c3cc4c(cc23)OCO4)CC1 | 15.8 µM | 44.5 µM |
| COc1cc(/C=C/C(=O)c2c(C)nc3ccccc3c2/C=C/c2ccc(C)cc2)cc(OC)c1OC | 1.88 µM | 4.26 µM |
| COc1cccc(OCCCN)c1-c1cc(Nc2cnc(C#N)cn2)n[nH]1 | 0.0407 µM | 2.04 µM |
| COc1cccc2c1C(=O)c1c(O)c3c(c(O)c1C2=O)C[C@@](O)(C(=O)CO)C[C@@H]3O[C@H]1C[C@H](N)[C@@H](O)[C@H](C)O1 | 0.094 µM | 0.304 µM |
| OC(CNCC1CCCO1)Cn1c2ccc(Cl)cc2c2cc(Cl)ccc21 (configuration not stated) | 1.65 µM | 3.2 µM |
| Clc1ccc2nnnn2n1 | 5.06 µM | 25.1 µM |
| O=C(Nc1ccc2[nH]c(=S)sc2c1)Nc1ccccc1F | 17.7 µM | > 100 µM |
| COc1ccc(S(=O)(=O)Nc2cc(/C=C\c3cc(OC)c(OC)c(OC)c3)ccc2OC)cc1 | 0.168 µM | > 100 µM |
| O=C1C=CC[C@H](/C=C/c2ccccc2)O1 | 1.94 µM | 11.5 µM |
| CCN1C(=O)N(c2ccccc2)C2NC(=S)N(/N=C/C=C/c3ccccc3)C21 (configuration not stated) | 0.347 µM | > 100 µM |
| CC(C)COCC(CN(Cc1ccccc1)c1ccccc1)N1CCCC1 (configuration not stated) | 1.82 µM | 6.56 µM |
